Literature values as cited in US20170157075A1, “Edible Compositions and Methods for Promoting Alpha Brain Waves” (priority 2015, published 2017).

Columns and labels:
[1] = not given; remark: listed apart in the source
[2] = estimated
[3] = 300 mg per day
[4] = daily 20 mg for every 10 pounds of body weight; controlled study
[5] = 300 mg per day; controlled trial
[6] = single 100 mg nighttime dose; placebo-controlled study
[7] = not given; remark: listed apart in the source
[8] = 600-900 mg daily; twelve weeks

Row | share of an oral dose that ends up producing serotonin in the body [2] [%] | SMILES | therapeutic effect on cluster of mood symptoms versus placebo (6 grams daily for 17 days, three consecutive cycles, 37 patients treated, 34 placebo) | withdrawals due to drug side effects (6 grams daily, 71 women include placebo group) | side effects or interactions reported during the studies ([1]; cited 5-HTP studies, 100-900 mg daily) | effect of high doses on brain dopamine ([1]; high doses, over time (Hinz et al. 2011, 2012)) | doses with no toxicity reports ([1]; humans, Examine.com summary) [mg/kg bodyweight] | effect in depression [3] | response of children with migraines and sleep problems [4] | effect on symptoms of fibromyalgia [5] | effect on duration and depth of sleep [6] | share of subjects with migraine attacks reduced in frequency, severity and duration ([7]; 400 mg per day, well-controlled trial) [%] | reduction of migraine headache attacks versus prescription medications ([7]; 600 mg per day, adults, two double blind studies) | average weight loss [8] [lbs]
1 | – | N[C@@H](Cc1c[nH]c2ccccc12)C(=O)O [L-tryptophan] | significant (p=0.004) therapeutic effect | 1 of 71 women | – | – | – | – | – | – | – | – | – | –
2 | 70 | N[C@@H](Cc1c[nH]c2ccc(O)cc12)C(=O)O [5-HTP, 5-hydroxytryptophan] | – | – | mild gastrointestinal disturbances in some people, mild nausea, heartburn, flatulence, feelings of fullness, and rumbling sensations | can lead over time to depletion of brain dopamine | ≤ 50 | often effective | responded well | effective in reducing many symptoms of fibromyalgia | sufficient to improve the duration and depth of sleep | 90 | as effective as prescription medications | 11
